Assay [1] is described as follows: Efficacy estimators of treatment alternatives reported in clinical trial studies. The assay is classed as in vivo, patients. As to conditions: for NRS: Non Response Survival, NRS=RS−RTD; for RS: Response Survival, RS=OS+(1−CBR)·RTD; for RTD* months: duration of clinical benefit, from TTP or PFS and graphical KM considerations. From the text:
Usually, in oncological studies we distinguish three reactions to a treatment well defined as their proportions are called: […]
ORR (Objective Response Rate which includes Partial Response and Complete Response) based on a percentage reduction of the tumor, PD (Progressive Disease) based on a percentage increase of the tumor and SD (Stable Disease) in which there is neither sufficient shrinkage to qualify for response, nor sufficient increase to qualify for progression.
Their proportion equals to ORR+SD and is called CBR (Clinical Benefit Rate).
OS (Overall Survival) is the median time from the treatment to death/loss of follow up.
RS (Response Survival) is the median time from response to death/loss of follow up in the responders group.
NRS (Non Response Survival) is the median time from the treatment to death/loss of follow up in the non-responders group.
The PFS (Progression Free Survival) or TTP (Time To Progression) is the median time from the treatment to the progression of the disease.
In the best case the DCB (Duration of Clinical Benefit) is also reported, which is the PFS of the participants defined like CBR.

For assay [2] the following is noted: cited from earlier work; for P(Ω+|Λ+): probability the treatment works given the marker exists, from clinico-molecular studies.
A short description of assay [3]: Molecular Prediction of Response (MPR) for patient X. As to conditions: for CBR/P(Λ+): Bayesian estimation of P(Ω+|Λ+); for MPR: final Molecular Prediction of Response, patient X; for CBR + α · sd(CBR): heuristic estimate of P(Ω+|Λ+), MPR.QI=1. From the text: Now, the MPR (Molecular Prediction of Response) is based on molecular results of the tumor lab analysis like the following:
At first, we attribute to the patient a “qualitative MPR”: MPR·QI in {−1, 0, 1}
If we don't know about any molecular markers that can predict a clinical response, than: MPR·QI=0
If the molecular analysis predicts no clinical response: MPR·QI=−1, and if the molecular analysis predicts some clinical response (including stable disease) MPR·QI=1.
MPR·QI=−1=>we admit in a deterministic way that MPR=0+sd(CBR)
MPR·QI=1=>we distinguish 3 cases.
Λ−⇒Ω− (or Ω+⇒Λ+) • In the best case if the article gives P(Ω+|Λ+) we use it. • If we have relevant knowledge on P(Λ+) we use a Bayesian estimation
P(Ω+|Λ+)=CBR+α·sd(RR) (2.7)
where α=3 for chemotherapy treatments and 2 for biological treatments.
The molecular predictions of the subject with the appropriated efficacy estimators or prevalence estimator from clinico-molecular and epidemiologic studies give the whole information that we need to obtain the final MPR.

The conditions of assay [4]: clinical trial study population, cited from earlier work; for CBR %: Clinical Benefit Rate (ORR+SD); for OS months: median overall survival; for RR %: response rate.
Assay [5] can be described thus: Adjusted Efficiency Values (AEV), pooling/ranking algorithm and efficiency grades for patient X. As to conditions: for subjOS: MPR·RS if MPR.QI=1 or MPR·NRS if MPR.QI=−1, table of three AEV by treatment name; for eff.OS: effOS=MPR·RS+(1−MPR)·NRS; for ART (pooled treatment group): sample-size weighted mean ART of the pooled treatments of the line, algorithm steps 1-6. From the text: At each step, we also calculate AEG (Adjusted Efficiency Grades) with its standard-error:
AEG is a vector of grades such that to the higher AEV component the equivalent AEG component is 10 and to the lower AEV component the equivalent AEG component is 1.
At each step j, 1≤j≤k−2, we represent two successive “old” treatments (or treatment groups) which bear some different efficiency values in the j−1 step, in one “new” treatment efficiency vales in the j step. This representation is described below (we refer to it by noting that we “pull” treatments' efficiencies and represent it as a different efficiency value): • We are pooling (AEV(l(j−1))^(j−1), AEV(l(j−1)+1)^(j−1)) as if both treatments were a single treatment with an “average Adjusted Efficiency Value”: AEV(l(j−1))^(j−1)
We retain also initial AEG and final AEG (the last step which is “necessary”). But to finally give the Total Efficiency Score (TES) we use the AEG^(J):
TES=0.5×AEGART^(J)+0.45×AEGeffOS^(J)+0.05×AEGsubjOS^(J) which is a vector for k−J treatments groups.
The three AEV are finally: the RTD adjusted or ART=RTD·MPR, the effOS and a subjective OS (we choose explicitly in which group the patient is) i.e.
From RTD (table 2), MPR (table 4), RS and NRS (table 3) we get our three AEV by
ART=MPR·RTD; effOS=MPR·RS+(1−MPR)·NRS;
subjOS=MPR·RS if MPR·QI=1 or MPR·NRS if MPR·QI=−1.
The alternatives (designated here by their references) are ordered by ascending ART, and CLR are computed
The ART are projected on the grade interval (1,10) and we get:
After the 3 algorithms are done we can summarize 3 grades for each alternative and the final grade is the weighted mean of them (The weights are 0.5 for ART, 0.45 for effOS and 0.05 for subjOS when available)

Setting [6] is: ART=MPR·RTD, table of three AEV by treatment name.
[7] abbreviates: by treatment reference number, ordered ascending, algorithm steps 0-3.
Setting [8] is: table of three AEV by treatment name.

`CN(C)C/C=C/C(=O)Nc1cc2c(Nc3ccc(F)c(Cl)c3)ncnc2cc1O[C@H]1CCOC1` [Afatinib]: in assay [1], the NRS is recorded as 12.54 months, the RS is recorded as 16.07 months and the “RTD* months” value is given as 3.5 months.
With `CN(C)/N=N/c1[nH]cnc1C(N)=O` [Dacarbasine], in assay [2], the “P(Ω+|Λ+)” value is 44. Further, in assay [3], the “CBR/P(Λ+)” value is recorded as 24.42, the MPR was 44 and the “CBR + α · sd(CBR)” value is 23.66. Also, in assay [4], the CBR % is reported as 15%, the OS months is on record as 7.5 months and the RR % is 3%. The same compound had an ART in assay [5] (setting [6]) of 0.779. The same compound showed a subjOS in assay [5] of 4.011. Moreover, the ART in assay [5] (setting [7]) turned out to be 0.836. This compound also had an eff.OS in assay [5] (setting [8]) of 6.4. In addition, in assay [5] (listed as 2), the “ART (pooled treatment group)” value was determined as 0.7858. Besides, in assay [1], the NRS is recorded as 7.21 months, the RS is 9.12 months and the “RTD* months” value is 1.9 months.
`CO[C@H]1C[C@@H]2CC[C@@H](C)[C@@](O)(O2)C(=O)C(=O)N2CCCC[C@H]2C(=O)O[C@H]([C@H](C)C[C@@H]2CC[C@@H](OCCO)[C@H](OC)C2)CC(=O)[C@H](C)/C=C(\C)[C@@H](O)[C@@H](OC)C(=O)[C@H](C)C[C@H](C)/C=C/C=C/C=C/1C` [Everolimus]: in assay [3], the “CBR/P(Λ+)” value was 53.97, the MPR is listed as 53.97 and the “CBR + α · sd(CBR)” value is reported as 49.06. Moreover, in assay [4], the CBR % was 32.4%, the OS months is listed as 5.9 months and the RR % is on record as 0%. The compound also came in with an ART in assay [5] (setting [6]) of 2.4. For the same compound, the subjOS in assay [5] is listed as 9.077. In assay [5] (setting [7]), the ART is 0.971. The compound further registered an eff.OS in assay [5] (setting [8]) of 11.03. Further, in assay [1], the NRS is given as 5.32 months, the RS was 7.12 months and the “RTD* months” value is reported as 1.8 months.
As for `Cc1nc2ccc(CN(C)c3ccc(C(=O)N[C@@H](CCC(=O)O)C(=O)O)s3)cc2c(=O)[nH]1` [Raltitrexed], the “P(Ω+|Λ+)” value in assay [2] is given as 50. For the same compound, in assay [3], the “CBR/P(Λ+)” value was 31.01, the MPR was 50 and the “CBR + α · sd(CBR)” value was 30.97. Moreover, in assay [4], the CBR % was 15%, the OS months is 7.4 months and the RR % is 0%. The subjOS in assay [5] was 3.841. In assay [5] (setting [7]), this compound registered an ART of 2.4. In addition, the eff.OS in assay [5] (setting [8]) came out at 6.288. Also, in assay [5] (listed as 1, step 2, pooled treatments 3 and 1), the “ART (pooled treatment group)” value turned out to be 2.275. For the same compound, the “ART (pooled treatment group)” value in assay [5] (listed as 1, step 3, pooled treatments 3, 1 and 6) is given as 2.387. Moreover, in assay [1], the NRS is 6.68 months, the RS is reported as 11.48 months and the “RTD* months” value was 4.8 months.
`CNC(=O)c1cc(Oc2ccc(NC(=O)Nc3ccc(Cl)c(C(F)(F)F)c3)c(F)c2)ccn1` [Regorafenib]: in assay [2] (printed in column CBR + α · sd(CBR), MPR.QI=0), the CBR was 41 (CBR). Further, the MPR in assay [3] was 41. Further, in assay [4], the CBR % is given as 41%, the OS months is 6.4 months and the RR % is 1%. Besides, the ART in assay [5] (setting [6]) was determined as 0.971. Also, in assay [5] (setting [7]), the ART was 0.779. In addition, the eff.OS in assay [5] (setting [8]) is given as 7.335. Moreover, the “ART (pooled treatment group)” value in assay [5] (listed as 4) is reported as 0.7858. Besides, in assay [1], the NRS is recorded as 5.62 months, the RS is 7.52 months and the “RTD* months” value is listed as 1.9 months.
`O=C1NC(=O)[C@@H](c2cn3c4c(cccc24)CCC3)[C@@H]1c1c[nH]c2ccccc12` [Tivantinib]: in assay [1], the NRS is recorded as 5.99 months, the RS is 8.69 months and the “RTD* months” value is 2.7 months.

The values are drawn from patent publication US20180218112A1, “MOLECULAR BASED DECISION SUPPORT SYSTEM FOR CANCER TREATMENT” (priority 2014, published 2018).
